Experimental data published in patent US20260374792A1, “PHENYL-FREE BISCATIONIC QUATERNARY PHOSPHONIUM COMPOUNDS AS ANTIMICROBIAL AGENTS” (priority 2022, published 2026).

How the values were obtained:
HA-MRSA (ATCC 33591) = experiment: MIC against hospital-acquired methicillin-resistant S. aureus (HA-MRSA); format: cell-based; conditions: Staphylococcus aureus, 72 h
Method: (§1) The term “minimum inhibitory concentration (MIC)” means the lowest concentration of an antimicrobial agent that will inhibit the visible growth of a microorganism after overnight incubation. MIC values against bacteria, for example, the Gram-positive Staphylococcus aureus and Enterococcus faecalis and the Gram-negative Escherichia coli and Pseudomonas aeruginosa were determined by standard methods. See also P. A. Wayne, Methods for Dilution Antimicrobial Tests for Bacteria that Grow Aerobically; Approved Standard, Ninth Edition, 2012, CLSI Document M07-A9, Vol. 32 No. 2.
(§2) Biological testing procedures were adapted from prior work by Melander and coworkers. For all biological assays, laboratory strains of methicillin-susceptible Staphylococcus aureus MSSA (SH1000), Staphylococcus aureus CA-MRSA (USA300-0114), Staphylococcus aureus HA-MRSA (ATCC 33591), Escherichia coli (MC4100), Enterococcus faecalis (OG1RF), Acinetobacter baumannii (ATCC 17978), were grown with shaking at 37 °C overnight from freezer stocks in 5 mL of the indicated media: SH1000, OG1RF, MC4100, USA300-0114, and ATCC 17978 were grown in BDTM Mueller-Hinton broth (MHB), whereas ATCC 33591 was grown in BDTM tryptic soy broth (TSB). The inoculum were then streaked onto Mueller-Hinton agar (MHA) plates and grown overnight at 37 °C. From the plates, single colonies were selected, diluted into 50 mL of fresh media and grown overnight at 37 °C with shaking for use in the MIC assays. Optical density (OD) measurements were obtained using a SpectraMax iD3 plate reader (Molecular Devices, United States).
(§3) Compounds were serially diluted two-fold from stock solutions (1.0 mM) to yield twelve 100 μL test concentrations, wherein the starting concentration of dimethyl sulfoxide (DMSO) was 2.5%. Overnight S. aureus, E. faecalis, E. coli, A. baumannii, USA300-0114 (CA-MRSA), and ATCC 33591 (HA-MRSA) cultures were diluted to ca. 10^6 CFU/mL in MHB or TSB and regrown to mid-exponential phase, as determined by optical density recorded at 600 nm (OD600). All cultures were then diluted again to ca. 10^6 CFU/mL and 100 μL were inoculated into each well of a U-bottom 96-well plate (Corning, 351177) containing 100 μL of compound solution. Plates were incubated statically at 37 °C for 72 hours upon which wells were evaluated visually for bacterial growth. The MIC was determined as the lowest concentration of compound resulting in no bacterial growth visible to the naked eye, based on the highest value in three independent experiments. Aqueous DMSO controls were conducted as appropriate for each compound.
(§4) The prepared library of biscationic amphiphilic compounds was assessed for performance as antibacterial disinfectants by determining the minimum inhibitory concentration (MIC) for each against a panel of bacteria. The bacteria selected for the study were chosen to evaluate the broad spectrum antimicrobial performance of the QPCs, and therefore, included both Gram-positive and Gram-negative bacterial strains, including those with known antimicrobial resistance mechanisms. These bacteria include the Gram-positive strains of methicillin-susceptible Staphylococcus aureus [MSSA; SH1000], community-acquired methicillin-resistant Staphylococcus aureus [CA-MRSA; USA 300-0114], hospital-acquired methicillin-resistant Staphylococcus aureus [HA-MRSA; ATCC 33591] and the […], Escherichia coli [MC4100], Acinetobacter baumannii [ATCC 17498] and Pseudomonas aeruginosa [PAO1].

A. baumannii [1] = experiment: MIC against A. baumannii; format: cell-based; conditions: Acinetobacter baumannii, 72 h
Method: as §1, §2, §3, §4

E. faecalis = experiment: MBEC, biofilm eradication, E. faecalis; format: cell-based, Enterococcus faecalis; conditions: 24 hours, 37 °C, TSB
Method: (§5) A regrowth assay was used to establish the MBEC of a compound to evaluate the antibiofilm activity.
(§6) Biofilm eradication experiments were performed using a pegged-lid microtiter plate assay to determine the MBEC values for compounds of interest, as previously described. […] Sci. Rep. 2017, 7, 2003; and Raval, Y. S., Flurin, L., Mohamed, A., Greenwood-Quaintance, K. E., Beyenal, H., & Patel, R. In Vitro Activity of Hydrogen Peroxide and Hypochlorous Acid Generated by Electrochemical Scaffolds Against Planktonic and Biofilm Bacteria. Antimicrob Agents Chemother. 2021, 65, e01966-20. Briefly, […] of mid-log phase culture diluted to ca. 10^6 CFU/mL in tryptic soy broth (TSB) was added to wells of plat-bottom 96-well plates (Thermo Scientific, 266120) and covered with 96-pegged lid (Thermo Scientific, 445497). Plates were incubated to establish bacterial biofilms after incubation at 37 °C for 24 hours. The pegged lid was then removed, washed with PBS, and transferred to another 96-well plate containing 2-fold serial dilutions of the test compounds (the “challenge plate”). The total volume in each well was […], comprising of […] of compound diluted in water/DMSO, with a starting DMSO concentration of 2.5%, and […] of TSB. Plates were incubated statically at 37 °C for 24 hours. Next, the pegged lids were transferred to a fresh 96-well plate containing […] of TSB and incubated overnight at 37 °C. MBEC values were determined as the lowest test concentration that resulted eradicated biofilm (i.e., wells displaying no turbidity in the final plate).

A. baumannii [2] = experiment: MBEC, biofilm eradication, A. baumannii; format: cell-based, Acinetobacter baumannii; conditions: 24 hours, 37 °C, TSB
Method: as §5, §6

P. aeruginosa = experiment: MBEC, biofilm eradication, P. aeruginosa; format: cell-based, Pseudomonas aeruginosa; conditions: 24 hours, 37 °C, TSB
Method: as §5, §6

[3] = Dynamic surface tension (bubble pressure tensiometer); format: physicochemical; conditions: 100, 300 and 1000 ppm in deionized water, 22 °C; 10 to 10,000 ms surface age
Method: All samples were analyzed using a Krüss BPT Mobile bubble pressure tensiometer. Solutions of 12(2)12 and ^MeP2P-12,12 were made in concentrations of 100, 300 and 1000 ppm using deionized water. Measurements were conducted at 22+1 °C. Before each sample run, a new capillary tip was installed and the instrument was calibrated with deionized water. The dynamic surface tension (mN/m) was measured as a function of surface bubble age (30 collection points over the range of 10 to 10,000 ms).
In order to further investigate these highly analogous bis-cationic structures, a Krüss bubble pressure tensiometer was utilized to measure the dynamic surface tension of 12(2)12 and ^MeP2P-12,12.
Antimicrobial activity is expected to be affected by differences in solution behavior of amphiphilic molecules, such as the propensity to form micelles and solution dispersion rates. Structural factors such as nature of the charge and the alkyl chain length of the amphiphile have been previously reported to change the behavior of surfactants. These types of structural factors are consistent with the factors that influence the inventors' proposed mechanism of action for bacteria membrane disruption by multicationic QACs. […]

| Structure (SMILES) | MIC (HA-MRSA (ATCC 33591)) | MIC (A. baumannii [1]) | MBEC (E. faecalis) | MBEC (A. baumannii [2]) | MBEC (P. aeruginosa) | dynamic surface tension (in words) [3] |
| --- | --- | --- | --- | --- | --- | --- |
| CCCCCCCCCCCC[N+](C)(C)CC[N+](C)(C)CCCCCCCCCCCC [12(2)12, reference compound] | 1 µM | 2 µM | 8 µM | 4 µM | >250 µM | behave almost identically in solution |
| CCCCCCCCCCCC[P+](C)(C)CC[P+](C)(C)CCCCCCCCCCC [^MeP2P-12,12] | 1 µM | 8 µM | 8 µM | 8 µM | >250 µM | behave almost identically in solution |
